Peptide text beside a SMILES is read from it.
What was measured:
[1] = Stability analysis by 1H NMR of samples exposed to air and light; details: ambient temperature
Experimental: Stability analysis was performed using 1H NMR (400 MHz) with acetic acid-d4 at various time point (typically days 1, 14, 30 and 60) using samples exposed to air and light at ambient temperature (clear vials with no caps).

[2] = test system: Balb/C mice; assay: Ocular irritation after topical dosing to the cornea (hyperemia, squinting, discharge, lid swelling); type: in vivo; details: for Hyperemia: 3 μL drop in each eye four times daily for 3 days
Experimental: In an embodiment where the ophthalmic formulation is an aqueous formulation, it has been determined in mice that certain formulations can be administered to the surface of the eye without producing irritation that would make them unsuitable for such application. Irritation parameters of TP-211-1, TP-212-1, TP-311-1 and TP-312-1 related to hyperemia, squinting, and discharge were determined in Balb/C mice. Mice were dosed topically to the cornea using a calibrated micropipette, with a 3 μL drop of treatment in each eye four times daily for 3 consecutive days at various concentrations.
TP-211-1 is Lysyl-lysine EPA. TP-212-1 is Lysyl-lysine bis-EPA. TP-311-1 is Lysyl-lysine DHA. TP-312-1 is Lysyl-lysine bis-DHA. The study drugs were prepared using phosphate buffered saline (PBS) to reach target concentrations ranging from 0.1% to 1.0%.
The animals were monitored for scratching at the eye or any other abnormal behavior post-dose. Ocular exams were conducted on Days 1 and 3 with use of a Micron III camera system to take high resolution videos of the right eye of each animal Clinical signs including but not limited to hyperemia, discharge, lid swelling, and squinting were evaluated by trained personnel who was masked as to group assignment. Each clinical sign was graded on a scale of 0-4, with the exception of lid swelling which was graded on a scale of 0-2. Scores were averaged and are expressed as the mean±SEM for each group. Statistical significance was assessed between the treatment arms and the vehicle group. Any significance is noted by asterisks (*=p<0.05, **=p<0.01, ***=p<0.001).

[3] = Oral pharmacokinetics (oral gavage), plasma free EPA or free DHA; type: in vivo, Sprague-Dawley rats; details: oral gavage 40 mg/kg, rat
Experimental: Experiments via Oral Gavage: Oral pharmacokinetic parameters of TP-212 (Lysyl-Lysine Bis-EPA), TP-312 (Lysyl-Lysine Bis-DHA), EPA-EE, EPA FFA and DHA FFA were determined in Sprague-Dawley rats. EPA-EE is 97% pure ethyl ester form of eicosapentaenoic acid. It is the principal polyunsaturated fatty acid in Vascepa, an Omega-3 compound approved in the U.S. for the treatment of severe hypertriglyceridemia. EPA FFA is 97% pure free fatty acid form of eicosapentaenoic acid and DHA FFA is 98% pure free fatty acid DHA. EPA FFA and DHA FFA are the two principal poly-unsaturated fatty acids in Epanova, an Omega-3 compound approved in the U.S. for the treatment of severe hypertriglyceridemia. The subject drugs were administered by oral gavage as an aqueous solution in de-ionized water to 6 Sprague-Dawley rats per group (3 males and 3 females). Rats were dosed at 40 mg/kg. Blood samples were obtained from each rat by jugular vein catheter. Samples were collected at pre-dose and at 0.25, 0.5, 1, 2, 4, 8, 12 and 18 hours post dose. Blood samples were centrifuged to separate red blood cells and the resulting plasma samples were analyzed for free EPA or free DHA. Free EPA or […] extracted from rat plasma with hexane at acidic condition without hydrolysis. Detection was by MS-MS monitoring of negative ion for EPA or DHA. Calculated pharmacokinetic values are mean values from 6 rats for each study drug.
For all figures and tables, the data are adjusted as follows for comparative purposes. First, the actual plasma levels are baseline adjusted. Thus, for each study arm, the pre-dose level (time=0) is subtracted from the actual plasma levels at each time point, with negative values adjusted to zero. Second, these baseline adjusted values are further adjusted to be molar dose equivalent on a comparative basis among the study arms with respect to EPA or DHA payload (i.e., as if equal amounts of free fatty acid EPA or DHA are administered in each study arm).

[4] = 0 h (pre-dose), molar dose equivalent, baseline adjusted
[5] = 0.25 h (15 min), molar dose equivalent, baseline adjusted
[6] = 0.5 h (30 min), molar dose equivalent, baseline adjusted
[7] = 1 h (60 min), molar dose equivalent, baseline adjusted
[8] = 2 h (120 min), molar dose equivalent, baseline adjusted
[9] = 4 h (240 min), molar dose equivalent, baseline adjusted
[10] = 8 h, molar dose equivalent, baseline adjusted
[11] = 12 h, molar dose equivalent, baseline adjusted
[12] = 18 h, molar dose equivalent, baseline adjusted
[13] = molar dose equivalent, baseline adjusted

For `CCC=CCC=CCC=CCC=CCC=CCC=CCCC(=O)O.CCC=CCC=CCC=CCC=CCC=CCC=CCCC(=O)O.N=C(N)NCCCC(N)C(=O)NC(CCCNC(=N)N)C(=O)O` [Arginyl-arginine Bis-DHA], the “Stability by NMR (amount of sample remaining relative to original sample)” value ([1]; Day 3) was 1 (1 = >95%), the “Stability by NMR (amount of sample remaining relative to original sample)” value ([1]; Day 14) was 1 (1 = >95%) and the “Stability by NMR (amount of sample remaining relative to original sample)” value ([1]; Day 30) was 1 (1 = >95%). For the same compound, the “Stability by NMR (amount of sample remaining relative to original sample)” value ([1]; Day 60) was 1 (1 = >95%).

In the case of `CCC=CCC=CCC=CCC=CCC=CCCCC(=O)O.CCC=CCC=CCC=CCC=CCC=CCCCC(=O)O.N=C(N)NCCCC(N)C(=O)NC(CCCNC(=N)N)C(=O)O` (stereo not drawn) [Arginyl-arginine Bis-EPA] (H-Arg-Arg-OH; configuration not given here), the “Stability by NMR (amount of sample remaining relative to original sample)” value ([1]; Day 3) is reported as 1 (1 = >95%), the “Stability by NMR (amount of sample remaining relative to original sample)” value ([1]; Day 14) is reported as 1 (1 = >95%) and the “Stability by NMR (amount of sample remaining relative to original sample)” value ([1]; Day 30) is reported as 1 (1 = >95%). For the same compound, the “Stability by NMR (amount of sample remaining relative to original sample)” value ([1]; Day 60) was 1 (1 = >95%).

In the case of `CCC=CCC=CCC=CCC=CCC=CCC=CCCC(=O)O.CCC=CCC=CCC=CCC=CCC=CCC=CCCC(=O)O.N=C(N)NCCCC(N)C(=O)NC(CCCCN)C(=O)O` [Arginyl-lysine Bis-DHA], the “Stability by NMR (amount of sample remaining relative to original sample)” value ([1]; Day 3) is reported as 1 (1 = >95%), the “Stability by NMR (amount of sample remaining relative to original sample)” value ([1]; Day 14) is reported as 1 (1 = >95%) and the “Stability by NMR (amount of sample remaining relative to original sample)” value ([1]; Day 30) is reported as 1 (1 = >95%). For the same compound, the “Stability by NMR (amount of sample remaining relative to original sample)” value ([1]; Day 60) was 1 (1 = >95%).

For `CCC=CCC=CCC=CCC=CCC=CCCCC(=O)O.CCC=CCC=CCC=CCC=CCC=CCCCC(=O)O.N=C(N)NCCCC(N)C(=O)NC(CCCCN)C(=O)O` [Arginyl-lysine Bis-EPA], the “Stability by NMR (amount of sample remaining relative to original sample)” value ([1]; Day 3) was 1 (1 = >95%), the “Stability by NMR (amount of sample remaining relative to original sample)” value ([1]; Day 14) was 1 (1 = >95%) and the “Stability by NMR (amount of sample remaining relative to original sample)” value ([1]; Day 30) was 1 (1 = >95%). The “Stability by NMR (amount of sample remaining relative to original sample)” value ([1]; Day 60) was 1 (1 = >95%).

In the case of `CC/C=C\C/C=C\C/C=C\C/C=C\C/C=C\CCCC(=O)O.NCCCC[C@H](NC(=O)[C@@H](N)CCCCN)C(=O)O` [Compound 1, (L,L) Lysyl-lysine EPA salt (mono)], the Hyperemia ([2]; 0.1% concentration in PBS) is reported as “maintained baseline levels of hyperemia throughout both evaluations”, the Hyperemia ([2]; 0.25% concentration in PBS) is reported as “maintained baseline levels of hyperemia throughout both evaluations” and the Hyperemia ([2]; 0.5% concentration in PBS) is reported as “some initial increase in hyperemia”. The Squinting ([2]; all concentrations tested, topical to cornea) was “no statistically significant changes in squinting”, the “Hyperemia at last dose / final evaluation” value ([2]; concentrations that showed an initial increase or all tested, last dose / final evaluation (Day 3)) was “returned to baseline levels by the last dose on Day 3” and the “Concentration at which not irritating / well tolerated” value ([2]; topical to cornea four times daily for 3 days) was “less than 0.5%”. The “Stability by NMR (amount of sample remaining relative to original sample)” value ([1]; Day 3) was 1 (1 = >95%), the “Stability by NMR (amount of sample remaining relative to original sample)” value ([1]; Day 14) was 1 (1 = >95%) and the “Stability by NMR (amount of sample remaining relative to original sample)” value ([1]; Day 30) was 1 (1 = >95%). The “Stability by NMR (amount of sample remaining relative to original sample)” value ([1]; Day 60) was 1 (1 = >95%).

For `CC/C=C\C/C=C\C/C=C\C/C=C\C/C=C\CCCC(=O)O.NCCCC[C@H](NC(=O)[C@@H](N)CCCCN)C(=O)O.O=C(O)c1cccnc1` [Compound 7, (L,L) Lysyl-lysine EPA niacin], the “Stability by NMR (amount of sample remaining relative to original sample)” value ([1]; Day 3) was 1 (1 = >95%), the “Stability by NMR (amount of sample remaining relative to original sample)” value ([1]; Day 14) was 1 (1 = >95%) and the “Stability by NMR (amount of sample remaining relative to original sample)” value ([1]; Day 30) was 1 (1 = >95%). The “Stability by NMR (amount of sample remaining relative to original sample)” value ([1]; Day 60) was 1 (1 = >95%).

With `CC/C=C\C/C=C\C/C=C\C/C=C\C/C=C\C/C=C\CCC(=O)O` [DHA-FFA, DHA] the “Tmax (free DHA)” value [3] was 4 h, the “Plasma level of free DHA” value [3, 4] was 0.0 µg/mL and the “Plasma level of free DHA” value [3, 5] was 0.0 µg/mL. For the same compound, the “Plasma level of free DHA” value [3, 6] was 1.8 µg/mL, the “Plasma level of free DHA” value [3, 7] was 1.8 µg/mL and the “Plasma level of free DHA” value [3, 8] was 2.2 µg/mL. For the same compound, the “Plasma level of free DHA” value [3, 9] was 3.4 µg/mL, the “Plasma level of free DHA” value [3, 10] was 1.7 µg/mL and the “Plasma level of free DHA” value [3, 11] was 2.1 µg/mL. For the same compound, the “Plasma level of free DHA” value [3, 12] was 1.2 µg/mL, the “AUC 0-1 hrs (free DHA)” value [3, 13] was 1.1 µg·h/mL and the “AUC 0-4 hrs (free DHA)” value [3, 13] was 8.7 µg·h/mL. The “AUC 0-18 hrs (free DHA)” value [3, 13] was 36.3 µg·h/mL and the “Cmax (free DHA)” value [3, 13] was 3.4 µg/mL.

With `CC/C=C\C/C=C\C/C=C\C/C=C\C/C=C\CCCC(=O)OCC` [EPA ethyl ester] the “Tmax (free EPA)” value [3] was 4 h, the “Plasma level of free EPA” value [3, 4] was 0.0 µg/mL and the “Plasma level of free EPA” value [3, 5] was 0.3 µg/mL. For the same compound, the “Plasma level of free EPA” value [3, 6] was 0.5 µg/mL, the “Plasma level of free EPA” value [3, 7] was 0.7 µg/mL and the “Plasma level of free EPA” value [3, 8] was 0.8 µg/mL. The “Plasma level of free EPA” value [3, 9] was 1.1 µg/mL, the “Plasma level of free EPA” value [3, 10] was 0.5 µg/mL and the “Plasma level of free EPA” value [3, 11] was 0.0 µg/mL. For the same compound, the “Plasma level of free EPA” value [3, 12] was 0.0 µg/mL, the “AUC 0-18 hrs (free EPA)” value [3, 13] was 7.2 µg·h/mL and the “Cmax (free EPA)” value [3, 13] was 1.1 µg/mL. The “Stability by NMR (amount of sample remaining relative to original sample)” value ([1]; Day 3) was 1 (1 = >95%), the “Stability by NMR (amount of sample remaining relative to original sample)” value ([1]; Day 14) was 1-2 and the “Stability by NMR (amount of sample remaining relative to original sample)” value ([1]; Day 30) was 4 (4 = <50%). The “Stability by NMR (amount of sample remaining relative to original sample)” value ([1]; Day 60) was 4 (4 = <50%).

`CC/C=C\C/C=C\C/C=C\C/C=C\C/C=C\CCCC(=O)O` [EPA-FFA, eicosapentaenoic acid] gave a Tmax ([3]; both sexes, Sprague-Dawley, plasma) of 0.5 h, a concentration at 0 h ([3]; both sexes, Sprague-Dawley, plasma, 0 h (pre-dose), molar dose equivalent, baseline adjusted, read-out: Plasma level of free EPA) of 0 µg/mL and a concentration at 0.25 h ([3]; both sexes, Sprague-Dawley, plasma, 0.25 h (15 min), molar dose equivalent, baseline adjusted, read-out: Plasma level of free EPA) of 0 µg/mL. It also gave a concentration at 0.5 h ([3]; both sexes, Sprague-Dawley, plasma, 0.5 h (30 min), molar dose equivalent, baseline adjusted, read-out: Plasma level of free EPA) of 1.3 µg/mL, a concentration at 1 h ([3]; both sexes, Sprague-Dawley, plasma, 1 h (60 min), molar dose equivalent, baseline adjusted, read-out: Plasma level of free EPA) of 0.5 µg/mL and a concentration at 2 h ([3]; both sexes, Sprague-Dawley, plasma, 2 h (120 min), molar dose equivalent, baseline adjusted, read-out: Plasma level of free EPA) of 0.8 µg/mL. The concentration at 4 h ([3]; both sexes, Sprague-Dawley, plasma, 4 h (240 min), molar dose equivalent, baseline adjusted, read-out: Plasma level of free EPA) was 1.1 µg/mL, the concentration at 8 h ([3]; both sexes, Sprague-Dawley, plasma, 8 h, molar dose equivalent, baseline adjusted, read-out: Plasma level of free EPA) was 0.9 µg/mL and the concentration at 12 h ([3]; both sexes, Sprague-Dawley, plasma, 12 h, molar dose equivalent, baseline adjusted, read-out: Plasma level of free EPA) was 0.3 µg/mL. The concentration at 18 h ([3]; both sexes, Sprague-Dawley, plasma, 18 h, molar dose equivalent, baseline adjusted, read-out: Plasma level of free EPA) was 0 µg/mL, the “AUC 0-1 hrs (free EPA)” value [3, 13] was 0.6 µg·h/mL and the “AUC 0-4 hrs (free EPA)” value [3, 13] was 3.1 µg·h/mL. The “AUC 0-18 hrs (free EPA)” value [3, 13] was 10.5 µg·h/mL and the “Cmax (free EPA)” value [3, 13] was 1.3 µg/mL.

— patent publication US9505709B2, “Compositions and methods relating to ionic salts of peptides” (Thetis Pharmaceuticals LLC, priority 2014, dated 2016)
